From paper PMC8448092, “Inhibitory Compounds Targeting Plasmodium falciparum Gyrase B” (Antimicrobial Agents and Chemotherapy, 2021)
Read-outs that look alike come from different tables or passages of the source.

Assays:
[1] = biological target: T1, EcGyr (Escherichia coli, UniProt P0AES4+P0AES6); test: DNA supercoiling assay, E. coli gyrase; format: biochemical; details: relaxed pBR322, 37°C 30 min, 1% DMSO, n = 3; read-out: IC50 supercoiling inhibitory activity, EcGyr
T1 construct: made in house
Procedure: A supercoiling assay was utilized to test a library of compounds previously selected for binding to EcA2PfB2 but not EcGyr. The library was a kind gift from Yasumitsu Kondoh, RIKEN. The EcGyr complex was used as a control allowing selection for specific compounds that target PfB. Supercoiling assays were carried out in a buffer consisting of 35 mM Tris-HCl (pH 7.5), 24 mM KCl, 4 mM MgCl2, 2 mM DTT, 1.8 mM spermidine, 1 mM ATP, 6.5% (wt/vol) glycerol, and 0.1 mg/ml bovine serum albumin (BSA). The hybrid (EcA2PfB2) complex or EcGyr complex was formed in the storage buffer (50 mM Tris-HCl [pH 7.5], 100 mM KCl, 10% [wt/vol] glycerol, 1 mM EDTA, 2 mM DTT). In a 30-μl reaction, the gyrase complex and 0.5 μg of pBR322 relaxed DNA (Inspiralis, United Kingdom) were assembled on ice and incubated at 37°C for 30 min. The reaction was then stopped by adding an equal volume of stop solution (40% sucrose, 100 mM Tris-HCl [pH 7.5], 1 mM EDTA, 0.5 mg/ml bromophenol blue) and extracted by mixing with 30 μl chloroform-isoamyl alcohol (24:1). The samples were centrifuged at 14,000 × g for 1 min, and the aqueous phase was collected and loaded onto a 1% 1× Tris-acetate-EDTA (TAE) agarose gel. The DNA products were resolved by electrophoresis at 80 V for 120 min and visualized by UV irradiation. The images were then analyzed using ImageJ v.1.47 to obtain the intensity of the supercoiled DNA band. […]

[2] = biological target: T2, EcA2PfB2 (Plasmodium falciparum, UniProt Q8I528); test: biochemical; format: biochemical, Plasmodium falciparum GyrB with Escherichia coli GyrA; details: for Sensitivity of hybrid complex to known bacterial gyrase inhibitors: supercoiling, Fig. S1D and E
Procedure: A supercoiling assay was utilized to test a library of compounds previously selected for binding to EcA2PfB2 but not EcGyr. The library was a kind gift from Yasumitsu Kondoh, RIKEN. The EcGyr complex was used as a control allowing selection for specific compounds that target PfB. Supercoiling assays were carried out in a buffer consisting of 35 mM Tris-HCl (pH 7.5), 24 mM KCl, 4 mM MgCl2, 2 mM DTT, 1.8 mM spermidine, 1 mM ATP, 6.5% (wt/vol) glycerol, and 0.1 mg/ml bovine serum albumin (BSA). The hybrid (EcA2PfB2) complex or EcGyr complex was formed in the storage buffer (50 mM Tris-HCl [pH 7.5], 100 mM KCl, 10% [wt/vol] glycerol, 1 mM EDTA, 2 mM DTT). In a 30-μl reaction, the gyrase complex and 0.5 μg of pBR322 relaxed DNA (Inspiralis, United Kingdom) were assembled on ice and incubated at 37°C for 30 min. The reaction was then stopped by adding an equal volume of stop solution (40% sucrose, 100 mM Tris-HCl [pH 7.5], 1 mM EDTA, 0.5 mg/ml bromophenol blue) and extracted by mixing with 30 μl chloroform-isoamyl alcohol (24:1). The samples were centrifuged at 14,000 × g for 1 min, and the aqueous phase was collected and loaded onto a 1% 1× Tris-acetate-EDTA (TAE) agarose gel. The DNA products were resolved by electrophoresis at 80 V for 120 min and visualized by UV irradiation. The images were then analyzed using ImageJ v.1.47 to obtain the intensity of the supercoiled DNA band. Gyrase with 1% dimethyl sulfoxide (DMSO) was used as the control. The percentage of supercoiled DNA (% SC) was normalized using samples with gyrase in the absence of inhibitor as the full supercoiling control and was plotted against PPG concentration. Data were fitted to the equation % SC = ae^b^[PPG], where a and b are function parameters, using OriginLab Origin (Pro) v.2020b.

[3] = system: P. falciparum 3D7; details: growth in vitro; ref [25], [33]; cited from earlier work
[4] = biological target: T3, EcB (Escherichia coli, UniProt P0AES6); test: Microscale thermophoresis binding to EcB; details: 1:1 binding model, 100 nM labeled protein, 5% DMSO, room temperature; read-out: Kd for EcB (MST)
T3 construct: made in house
Procedure: (§1) Microscale thermophoresis (MST) experiments were performed using a Monolith NT.115 instrument (NanoTemper). Proteins (PfB and EcB) were labeled with Red 2nd Generation labeling kits (NanoTemper) in which the fluorescent red dye was coupled with protein via NHS coupling. Labeled protein (100 nM) was mixed with PPG (Activate Scientific, dissolved in DMSO to a final concentration of 5%) and in MST buffer {240 mM NaPi (pH 7.4), 274 mM NaCl, 54 mM KCl, 100 μM TCEP [Tris(2-carboxyethyl)phosphine hydrochloride], 0.05% Tween 20, 5% DMSO} and incubated in the dark for 15 min. The samples were applied onto capillaries (Monolith NT.115 MST Premium coated capillaries), and the fluorescence signal was measured using MO.Control software (Nanotemper). Initial fluorescence signal was used for binding analysis, and Kd was calculated using 1:1 binding model. Results were baseline corrected and normalized for amplitude using MO.Control software (Nanotemper). The Kd values were calculated based on three independent measurements. All experiments were performed at room temperature.

[5] = system: P. falciparum 3D7; test: P. falciparum growth inhibition in vitro (SYBR green); format: cell-based; details: Plasmodium falciparum, 96 h of treatment
Procedure: Tests on parasites were performed by Anti-infectives Screening Core Services at NYU School of Medicine based on previously published protocol ([44]). P. falciparum strain 3D7 was used for all determinations. Using 96-well plates, 100 μl of P. falciparum growth medium (RPMI 1640, 25 mM HEPES, 0.1 mg/ml gentamicin, 0.05 mg/liter hypoxanthine [pH 6.75]), supplemented with 0.25% sodium bicarbonate and 0.5% Albumax II (Invitrogen), was added to each well. A 10 mM stock of PPG in DMSO was then serially diluted in triplicate. DMSO at the highest concentration used (0.5%) was tested in parallel as a control. Asynchronous P. falciparum in a 100-μl volume was then added to each well at 0.25% late-stage parasitemia with 5% hematocrit, as well as controls (medium, red blood cells, P. falciparum, or P. falciparum with 2 μM chloroquine). The plates were placed in a sealed chamber and maintained under atmospheric conditions of 5% oxygen, 5% carbon dioxide, and 90% nitrogen at 37°C for 96 h. To determine the cell viability, a SYBR green assay for rapid assessment was performed.
After incubation, plates were placed at −80°C for 24 h. The plates were then thawed at 37°C for 4 h. Once thawed, 100 μl of from each resuspended well was transferred into a black, 96-well plate. […] Plates were analyzed on a fluorescence plate reader (Victor) at excitation and emission wavelengths of 485 and 530 nm, respectively. […]

[6] = biological target: T4, PfB (Plasmodium falciparum, UniProt Q8I528); test: EMSA DNA binding, PfB; details: 147 bp DNA, 1 μM PfB
Procedure: (§2) DNA binding assays were carried out using electrophoretic mobility shift assay (EMSA) with 147 bp dsDNA (based on the preferred gyrase cleavage site from plasmid pBR322) ([31]). In brief, 20 nM DNA was mixed with 200 nM reconstituted complex (hybrid or EcGyr) or 1 μM PfB in an assay buffer (30 mM Tris-HCl [pH 7.5], 75 mM KCl, 2 mM MgCl2, 6% glycerol, 1 mM DTT) and PPG for 1 h at room temperature. The samples were resolved in a 5% polyacrylamide gel in TBM buffer (90 mM Tris-borate, pH 7.5, 4 mM MgCl2) for 1 h at 80 V. The gel was stained with SYBR gold (Thermo) and visualized under UV light.

[7] = biological target: T1, EcGyr; test: ATP hydrolysis assay (malachite green), EcGyr; format: biochemical; details: 100 nM EcGyr
Procedure: (§3) The ATP hydrolysis reaction was performed as follows. Enzyme was incubated in the assay buffer (50 mM Tris-HCl [pH 7.5], 125 mM KCl, 1 mM EDTA, 5 mM MgCl2, 5 mM DTT, 10% glycerol) with test compounds at various concentrations, 1 mM ATP, and 10.5 nM linear pBR322 DNA for 30 min at room temperature. The protein concentrations used in the assay were as follows: 1 μM PfB, 0.5 μM EcA2PfB2, and 100 nM EcGyr. A malachite green assay kit (Sigma-Aldrich) was used to measure the released phosphate in the reaction. In brief, malachite green reagent was added to the reaction mixture, and the mixture was further incubated for 10 min. The formed color was measured at 620 nm using a plate reader (SpectraMAX190; Molecular Devices). The amount of released phosphate was calculated based on a calibration curve covering a linear range of 50 to 250 pmol using eight concentrations, which was prepared for each measurement independently. Experiments were carried out in triplicate.

[8] = biological target: T2, EcA2PfB2; test: DNA cleavage assay; format: biochemical, Plasmodium falciparum GyrB with Escherichia coli GyrA; details: 150 nM EcA2PfB2, supercoiled DNA, no ATP
Procedure: 22 The purified proteins (2 µg) were subjected to a 10% SDS PAGE and resolved by
23 electrophoresis at 180 V for 40 minutes. The protein bands were visualized by Coommassie
26 The DNA cleavage assay was performed in the same buffer conditions as for
27 supercoiling but ATP was omitted and supercoiled DNA was used instead of relaxed DNA.
28 EcA2PfB2 complex (150 nM) was incubated with 0.5 µg of supercoiled DNA in the
29 absence/presence of inhibitors for 60 min at 37 °C. In order to monitor the production of
30 linearized DNA, protein was removed by addition of 3 µl of 2% SDS and 1 µl of proteinase K
31 (>700 U) followed by further incubation at 37 °C for 30 min. The DNA was then extracted and
32 resolved in gel electrophoresis as described.

[9] = biological target: T1, EcGyr; test: EMSA DNA binding, EcGyr; details: 147 bp DNA, 200 nM complex
Procedure: as §2

[10] = biological target: T2, EcA2PfB2; test: ATP hydrolysis assay (malachite green), hybrid gyrase; format: biochemical, Plasmodium falciparum GyrB with Escherichia coli GyrA
Procedure: as §3, with “Enzyme was incubated in the assay buffer (50 mM Tris-HCl [pH 7.5], 125 mM KCl, 1 mM EDTA, 5 mM MgCl2, 5 mM DTT, 10% glycerol) with test compounds at various concentrations, 1 mM ATP, and 10.5 nM linear pBR322 DNA for 30 min at room temperature.” left out

[11] = biological target: T4, PfB; test: ATP hydrolysis assay (malachite green), PfB; format: biochemical; details: 1 μM PfB
Procedure: as §3

[12] = biological target: T4, PfB; test: Microscale thermophoresis binding to PfB
Procedure: as §1

[13] = biological target: T2, EcA2PfB2; test: EMSA DNA binding, hybrid gyrase; parameters: species or system Plasmodium falciparum GyrB with Escherichia coli GyrA; details: 147 bp DNA, 200 nM complex
Procedure: as §2

O=C1c2ccccc2C(=O)c2c1cc(S(=O)(=O)O)c(O)c2O [ARS, 1,2-dihydroxy-3-(oxysulfonyl)-9,10-anthracenedione]
IC50 [1]: > 100 µM | IC50 [2]: 55.6 ± 6.74 µM

O=C(O)c1cn(C2CC2)c2cc(N3CCNCC3)c(F)cc2c1=O [CIP, ciprofloxacin, reference compound]
IC50 [3]: 3000 ± 500 nM | Sensitivity of hybrid complex to known bacterial gyrase inhibitors [2]: sensitive

CO[C@@H]1[C@@H](OC(N)=O)[C@@H](O)[C@H](Oc2ccc3c(O)c(NC(=O)c4ccc(O)c(CC=C(C)C)c4)c(=O)oc3c2C)OC1(C)C [Novobiocin, reference compound]
Sensitivity of hybrid complex to known bacterial gyrase inhibitors [2]: sensitive

O=c1c(O)cccc2cc(O)c(O)c(O)c12 [PPG, 3,9,10,11-tetrahydroxybicyclo[5.4.0]undeca-1(7),3,5,8,10-pentaen-2-one]
Kd [4]: ~4.54 µM | IC50 [1]: > 1000 µM | IC50 [5]: 92 ± 16 µM | PPG concentration at which formation of the DNA-PfB complex was inhibited [6]: approximately 20 μM | Effect on intrinsic and enhanced ATP hydrolysis by EcB in complex with EcA [7]: little affected | Linear DNA formation (cleavage complex stabilization) [8]: did not observe any linear DNA formation | Effect on DNA-EcGyr complex [9]: remained intact | Effect on ATPase activity of EcA2PfB2 in the absence of DNA ([10]; 0.5 μM EcA2PfB2): decreased the ATPase activity in both the absence and presence of DNA | Effect on DNA-induced ATPase activity of EcA2PfB2 ([10]; 0.5 μM EcA2PfB2, with DNA): inhibited the DNA-induced ATPase activity of EcA2PfB2, although this was more modest | Effect on DNA-enhanced ATP hydrolysis of PfB ([11]; 10.5 nM linear pBR322 DNA, 1 mM ATP): decreased this DNA-enhanced ATP hydrolysis of PfB in a dose-dependent manner | Effect on intrinsic ATPase activity of PfB ([11]; no DNA): remained unchanged | Kd [12]: ~1030 nM | PPG concentration at which the DNA-EcA2PfB2 complex was disrupted [13]: 10 µM | IC50 [2]: 9.56 ± 1.94 µM
